Consider 23 compounds from US7138421B2, “Anti-androgenic pyrrolidines with tumor-inhibiting action” (Schring Aktiengesellschaft, priority 2003, dated 2006).

In this experiment the test system is LNCaP cells. The experiment is described as follows: Inhibition of the proliferation of LNCaP cells (crystal violet assay). The format is cell-based, human. To be noted: for inhibition at 1 µM / IC50: Homo sapiens, LNCaP; for inhibition at 1 µM: 1 μM test substance, compared to cell growth in the presence of 0.1 nmol of R1881, read-out: % Inhibition at 1 μM; for IC50: in the presence of 0.1 nmol of R1881, 7 to 8 days, read-out: IC50 inhibition of the proliferation of LNCaP cells; for antiproliferative action (in words): LNCaP cells. On the procedure:
For the proliferation assay, 6000 LNCaP cells/well (Horoszewicz et al. Cancer Res. 1983, 43, 1809–1817) in a microtiter plate (96-well) in 50 μl of RPMI1640 medium are grown with 5% CCS and cultivated as in Model 1. After 24 hours, the cells receive 50 μl of 2×-concentrated test substance, diluted in culture medium. The solvent concentration is 0.5% DMSO. After 4 days, the cells receive another 100 μl of 1×-concentrated test substance, diluted in culture medium. After 7 to 8 days, the proliferation rate of the cells is determined by means of crystal violet assay (Gillies et al. Anal. Biochem. 1986, 159, 109–113). To determine the antagonism, the substance treatment is performed in the presence of […] of R1881 (1:1000 dilution of ethanolic solution). Control cells receive only 0.5% DMSO. For the agonism, the cells are treated only with test substance (without R1881).

For `COC[C@H]1CCCN1CCCCCCCN1C(=S)N(c2ccc(C#N)c(C(F)(F)F)c2)C(=O)C1(C)C` [Example 16, 4-[3-[7-[(2R)-2-(Methoxymethyl)pyrrolidin-1-yl]heptyl]-4,4-dimethyl-5-oxo-2-thioxoimidazolidin-1-yl]-2-(trifluoromethyl)benzonitrile], the inhibition at 1 µM amounted to 98% and the IC50 was 18 nM.
As to `CC1CCCN1CCCCCCCCN1C(=S)N(c2ccc(C#N)c(C(F)(F)F)c2)C(=O)C1(C)C` (stereo not drawn) [Example 36, 4-[4,4-Dimethyl-3-[8-(2-methylpyrrolidin-1-yl)octyl]-5-oxo-2-thioxoimidazolidin-1-yl]-2-(trifluoromethyl)benzonitrile], the inhibition at 1 µM worked out at 96% and the IC50 is 15 nM.
`CC1(C)C(=O)N(c2ccc(C#N)c(C(F)(F)F)c2)C(=S)N1CCCCCN1CCCC1` [Comparison 2, 4-[4,4-Dimethyl-5-oxo-3-[5-(pyrrolidin-1-yl)pentyl]-2-thioxoimidazolidin-1-yl]-2-(trifluoromethyl)benzonitrile, reference compound]: the inhibition at 1 µM was 38%, the IC50 turned out to be 2100 nM and the “antiproliferative action (in words)” value is “considerably reduced antiproliferative activity”.
On to `COC[C@@H]1CCCN1CCCCCCCCCN1C(=S)N(c2ccc(C#N)c(C(F)(F)F)c2)C(=O)C1(C)C` [Example 21, 4-[3-[9-[(2S)-2-(Methoxymethyl)pyrrolidin-1-yl]nonyl]-4,4-dimethyl-5-oxo-2-thioxoimidazolidin-1-yl]-2-(trifluoromethyl)benzonitrile], for which the inhibition at 1 µM was 94% and the IC50 is 47 nM.
The matching figures for `CC(C)(O)[C@H]1CCCN1CCCCCCCCN1C(=S)N(c2ccc(C#N)c(C(F)(F)F)c2)C(=O)C1(C)C` [Example 44, 4-[3-[8-[(2R)-2-(1-Hydroxy-1-methylethyl)pyrrolidin-1-yl]octyl]-4,4-dimethyl-5-oxo-2-thioxoimidazolidin-1-yl]-2-(trifluoromethyl)benzonitrile]: 115% and 11 nM.
The matching figures for `CC(C)(O)[C@@H]1CCCN1CCCCCCCN1C(=S)N(c2ccc(C#N)c(C(F)(F)F)c2)C(=O)C1(C)C` [Example 39, 4-[3-[7-[(2S)-2-(1-Hydroxy-1-methylethyl)pyrrolidin-1-yl]heptyl]-4,4-dimethyl-5-oxo-2-thioxoimidazolidin-1-yl]-2-(trifluoromethyl)benzonitrile]: 108% and 41 nM.
As to `CC1(C)C(=O)N(c2ccc(C#N)c(C(F)(F)F)c2)C(=S)N1CCCCCCCCCN1CC[C@@H](O)C1` [Example 29, 4-[3-[9-[(R)-3-Hydroxypyrrolidin-1-yl]nonyl]-4,4-dimethyl-5-oxo-2-thioxoimidazolidin-1-yl]-2-(trifluoromethyl)benzonitrile], the inhibition at 1 µM came out at 99% and the IC50 worked out at 35 nM.
The matching figures for `CCC(O)(CC)[C@@H]1CCCN1CCCCCCCCN1C(=S)N(c2ccc(C#N)c(C(F)(F)F)c2)C(=O)C1(C)C` [Example 47, 4-[3-[8-[(2S)-2-(1-Hydroxy-1-ethylpropyl)pyrrolidin-1-yl]octyl]-4,4-dimethyl-5-oxo-2-thioxoimidazolidin-1-yl]-2-(trifluoromethyl)benzonitrile]: 99% and 27 nM.
The matching figures for `CC1(C)C(=O)N(c2ccc(C#N)c(C(F)(F)F)c2)C(=S)N1CCCCCCCN1CC[C@@H](O)C1` [Example 27, 4-[3-[7-[(R)-3-Hydroxypyrrolidin-1-yl]heptyl]-4,4-dimethyl-5-oxo-2-thioxoimidazolidin-1-yl]-2-(trifluoromethyl)benzonitrile]: 95% and 57 nM.
As for `CC1(C)C(=O)N(c2ccc(C#N)c(C(F)(F)F)c2)C(=S)N1CCCCCCCCCN1CCC[C@H]1CO` [Example 13, 4-[3-[9-[(2S)-2-(Hydroxymethyl)pyrrolidin-1-yl]nonyl]-4,4-dimethyl-5-oxo-2-thioxoimidazolidin-1-yl]-2-(trifluoromethyl)benzonitrile], the inhibition at 1 µM stood at 88% and the IC50 is 16 nM.
The matching figures for `COC[C@H]1CCCN1CCCCCCCCN1C(=S)N(c2ccc(C#N)c(C(F)(F)F)c2)C(=O)C1(C)C` [Example 18, 4-[3-[8-[(2R)-2-(Methoxymethyl)pyrrolidin-1-yl]octyl]-4,4-dimethyl-5-oxo-2-thioxoimidazolidin-1-yl]-2-(trifluoromethyl)benzonitrile]: 103% and 11 nM.
As for `COC[C@@H]1CCCN1CCCCCCCCN1C(=S)N(c2ccc(C#N)c(C(F)(F)F)c2)C(=O)C1(C)C` [Example 19, 4-[3-[8-[(2S)-2-(Methoxymethyl)pyrrolidin-1-yl]octyl]-4,4-dimethyl-5-oxo-2-thioxoimidazolidin-1-yl]-2-(trifluoromethyl)benzonitrile], the inhibition at 1 µM worked out at 97% and the IC50 was 25 nM.
The matching figures for `CC1(C)C(=O)N(c2ccc(C#N)c(C(F)(F)F)c2)C(=S)N1CCCCCCCCN1CC[C@@H](O)C1` [Example 28, 4-[3-[8-[(R)-3-Hydroxypyrrolidin-1-yl]octyl]-4,4-dimethyl-5-oxo-2-thioxoimidazolidin-1-yl]-2-(trifluoromethyl)benzonitrile]: 102% and 11 nM.
The matching figures for `CC1(C)C(=O)N(c2ccc(C#N)c(C(F)(F)F)c2)C(=S)N1CCCCCCCN1CC[C@H](C(N)=O)C1` [Example 50, (S)-1-[7-[3-[4-Cyano-3-(trifluoromethyl)phenyl]-5,5-dimethyl-4-oxo-2-thioxoimidazolidin-1-yl]heptyl]pyrrolidine-4-carboxamide]: 110% and 15 nM.
The matching figures for `CC1(C)C(=O)N(c2ccc(C#N)c(C(F)(F)F)c2)C(=S)N1CCCCCCCN1CCC[C@@H]1CO` [Example 8, 4-[3-[7-[(2R)-2-(Hydroxymethyl)pyrrolidin-1-yl]heptyl]-4,4-dimethyl-5-oxo-2-thioxoimidazolidin-1-yl]-2-(trifluoromethyl)benzonitrile]: 101% and 11 nM.
Regarding `CC1(C)C(=O)N(c2ccc(C#N)c(C(F)(F)F)c2)C(=S)N1CCCCCCCCN1CC[C@@H](C(N)=O)C1` [Example 54, (R)-1-[8-[3-[4-Cyano-3-(trifluoromethyl)phenyl]-5,5-dimethyl-4-oxo-2-thioxoimidazolidin-1-yl]octyl]pyrrolidine-4-carboxamide], the inhibition at 1 µM amounted to 93% and the IC50 came out at 64 nM.
The matching figures for `CC1(C)C(=O)N(c2ccc(C#N)c(C(F)(F)F)c2)C(=S)N1CCCCCCCN1C2CCC1CC(O)C2` (stereo not drawn) [Example 23, 4-[3-[7-(3-Hydroxy-8-azabicyclo[3.2.1]oct-8-yl)heptyl]-4,4-dimethyl-5-oxo-2-thioxoimidazolidin-1-yl]-2-(trifluoromethyl)benzonitrile]: 79% and 48 nM.
The matching figures for `CC1(C)C(=O)N(c2ccc(C#N)c(C(F)(F)F)c2)C(=S)N1CCCCCCCN1CCCC1` [Example 4, 4-[4,4-Dimethyl-5-oxo-3-[7-(pyrrolidin-1-yl)heptyl]-2-thioxoimidazolidin-1-yl]-2-(trifluoromethyl)benzonitrile]: 98% and 45 nM.
On to `CC1(C)C(=O)N(c2ccc(C#N)c(C(F)(F)F)c2)C(=S)N1CCCCCCN1CC[C@H](C(N)=O)C1` [Example 49, (S)-1-[6-[3-[4-Cyano-3-(trifluoromethyl)phenyl]-5,5-dimethyl-4-oxo-2-thioxoimidazolidin-1-yl]hexyl]pyrrolidine-4-carboxamide], for which the inhibition at 1 µM is 110% and the IC50 was determined as 32 nM.
The matching figures for `COC[C@@H]1CCCN1CCCCCCCN1C(=S)N(c2ccc(C#N)c(C(F)(F)F)c2)C(=O)C1(C)C` [Example 17, 4-[3-[7-[(2S)-2-(Methoxymethyl)pyrrolidin-1-yl]heptyl]-4,4-dimethyl-5-oxo-2-thioxoimidazolidin-1-yl]-2-(trifluoromethyl)benzonitrile]: 99% and 32 nM.
Consider `CC1(C)C(=O)N(c2ccc(C#N)c(C(F)(F)F)c2)C(=S)N1CCCCN1CCCC1` [Comparison 1, 4-[4,4-Dimethyl-5-oxo-3-[4-(pyrrolidin-1-yl)butyl]-2-thioxoimidazolidin-1-yl]-2-(trifluoromethyl)benzonitrile, reference compound], for which the inhibition at 1 µM was determined as 20%, the IC50 was 4300 nM and the “antiproliferative action (in words)” value is reported as “considerably reduced antiproliferative activity”.
`COC[C@H]1CCCN1CCCCCCCCCN1C(=S)N(c2ccc(C#N)c(C(F)(F)F)c2)C(=O)C1(C)C` [Example 20, 4-[3-[9-[(2R)-2-(Methoxymethyl)pyrrolidin-1-yl]nonyl]-4,4-dimethyl-5-oxo-2-thioxoimidazolidin-1-yl]-2-(trifluoromethyl)benzonitrile]: the inhibition at 1 µM was found to be 101% and the IC50 worked out at 29 nM.
Turning to `CC1(C)C(=O)N(c2ccc(C#N)c(C(F)(F)F)c2)C(=S)N1CCCCCCCN1CC[C@@H](C(N)=O)C1` [Example 53, (R)-1-[7-[3-[4-Cyano-3-(trifluoromethyl)phenyl]-5,5-dimethyl-4-oxo-2-thioxoimidazolidin-1-yl]heptyl]pyrrolidine-4-carboxamide], the inhibition at 1 µM turned out to be 97% and the IC50 came out at 49 nM.
